The text below walks through data of paper PMC10821035, “Silver and Copper Complexes with Ibuprofen and Caffeine—Preparation and Evaluation of Their Selected Biological Effects” (Molecules, 2024).

Where two headings read alike, the source gives them in different places. Bounds are passed on as bounds.

The test system of assay [1] is all tested bacterial strains. The experiment in a line: MIC by broth microdilution, all tested bacterial strains. Format: cell-based. As to the method: (§1) The bacterial strains Bacillus subtilis ATCC 6637, Bacteroides fragilis ATCC 25285, Clostridium bifermentans ATCC 638, Escherichia coli ATCC 35218, Enterococcus faecalis ATCC 29212, Pseudomonas aeruginosa ATCC 27853, Staphylococcus aureus ATCC 6538, Staphylococcus aureus ATCC 25923, Staphylococcus aureus ATCC 29213, Staphylococcus aureus ATCC 43300, and Staphylococcus epidermidis ATCC 12228 were cultured in Mueller–Hinton medium (Oxoid, Basingstoke, UK) at 37 °C for 24 h.
(§2) The minimal inhibitory concentration (MIC) was determined by the broth microdilution method according to the standards of the Clinical and Laboratory Standards Institute (CLSI) manuals in 96-well plates. All stock solutions of the investigated complexes were prepared in DMSO with concentrations of 2 mg mL^−1.
(§3) The MIC was estimated as the lowest concentration of the complex inhibiting bacterial growth. As negative controls, samples without inoculum at each complex concentration were used, whereas the positive control contained the inoculum but not the investigated complexes. Each complex was tested at concentrations between 2.5 and 160 µg mL^−1. The first well contained the highest concentration, and further concentrations were achieved by serial dilution. The assay was performed in duplicate with three repetitions for each bacterial strain.
Background: Dilution methods test growth across graded concentrations, often in twofold steps.

The test system of assay [2] is Staphylococcus aureus ATCC 29213. The experiment in a line: MIC by broth microdilution. Format: cell-based. How it is done:
as §1, §2, §3

In assay [3] the test system is Staphylococcus epidermidis ATCC 12228. The experiment in a line: MIC by broth microdilution. The class given is cell-based. How it is done:
as §1, §2, §3

The test system of assay [4] is Bacteroides fragilis ATCC 25285. In words: MIC by broth microdilution. The class given is cell-based. How it is done:
as §1, §2, §3

Assay [5] deals with Staphylococcus aureus ATCC 25923. In words: MIC by broth microdilution. Format: cell-based. As to the method:
as §1, §2, §3

Assay [6] has as its system Staphylococcus aureus ATCC 6538. The experiment in a line: MIC by broth microdilution. The class given is cell-based. As to the method: as §1, §2, §3
Assay [7] concerns Staphylococcus aureus ATCC 43300. The experiment in a line: MIC by broth microdilution. The class given is cell-based. As to the method: as §1, §2, §3
The test system of assay [8] is Bacillus subtilis ATCC 6637. In words: MIC by broth microdilution. The class given is cell-based. As to the method: as §1, §2, §3
Assay [9] has as its system Enterococcus faecalis ATCC 29212. The experiment in a line: MIC by broth microdilution. The class given is cell-based. How it is done:
as §1, §2, §3

Assay [10] relates to Pseudomonas aeruginosa ATCC 27853. The experiment in a line: MIC by broth microdilution. Format: cell-based. As to the method:
as §1, §2, §3

The subject of assay [11] is Escherichia coli ATCC 25218. In words: MIC by broth microdilution. Format: cell-based. How it is done: as §1, §2, §3
In assay [12] the test system is CCD-18Co cells. In words: XTT cytotoxicity/proliferation assay on CCD-18Co fibroblasts. Format: cell-based, human. The note with it: 24 h incubation, XTT test. How it is done: The cell line CCD-18Co (fibroblasts from the colon of a healthy human) was obtained from the American Type Cells Collections (Cat. No. ATCC-CRL-1459). The cells were cultured in Minimum Essential Medium Eagle (MEM) with Earle’s salts, L-glutamine, sodium bicarbonate, and phenol red, supplemented with 10% fetal bovine serum (FBS), 1% non-essential amino acids (NEAAs), and 1% penicillin/streptomycin solution (P/S), all purchased from Sigma-Aldrich (St. Louis, MO, USA). The incubation parameters were 37 ℃, 5% CO2, and 95% relative humidity. The cytotoxicity of the tested complexes (Ag-IBU, Ag-IBU-CAF, Cu-IBU, and Cu-IBU-CAF) was derived using two distinct parameters: (1) tetrazolium salt (XTT) reduction by mitochondrial succinate dehydrogenases using an XTT (Tetrazolium hydroxide) Kit; and (2) neutral red (NR) dye uptake and incorporation within lysosomes using an NR (Neutral Red) Kit. Both kits were produced by Xenometrix AG, Allschwil, Switzerland. The assays were carried out without any substantial changes to the test procedures provided by the manufacturer. The stock solutions of the tested compounds at 20 mg mL^−1 were prepared in DMSO. […] The cells were incubated for the next 3 h, gently mixed, and the absorbance was read at 480 nm with a reference wavelength of 690 nm using the multi-mode plate reader FLUOstar Omega (BMG Labtech, Ortenberg, Germany). […]
In general terms: Tetrazolium dyes change colour on reduction, which living cells bring about.

In assay [13] the target is T1, ovine COX-1 (Ovis aries, UniProt P05979).
T1 construct: purchased Cayman Chemicals
T1 sequence (P05979 25-600): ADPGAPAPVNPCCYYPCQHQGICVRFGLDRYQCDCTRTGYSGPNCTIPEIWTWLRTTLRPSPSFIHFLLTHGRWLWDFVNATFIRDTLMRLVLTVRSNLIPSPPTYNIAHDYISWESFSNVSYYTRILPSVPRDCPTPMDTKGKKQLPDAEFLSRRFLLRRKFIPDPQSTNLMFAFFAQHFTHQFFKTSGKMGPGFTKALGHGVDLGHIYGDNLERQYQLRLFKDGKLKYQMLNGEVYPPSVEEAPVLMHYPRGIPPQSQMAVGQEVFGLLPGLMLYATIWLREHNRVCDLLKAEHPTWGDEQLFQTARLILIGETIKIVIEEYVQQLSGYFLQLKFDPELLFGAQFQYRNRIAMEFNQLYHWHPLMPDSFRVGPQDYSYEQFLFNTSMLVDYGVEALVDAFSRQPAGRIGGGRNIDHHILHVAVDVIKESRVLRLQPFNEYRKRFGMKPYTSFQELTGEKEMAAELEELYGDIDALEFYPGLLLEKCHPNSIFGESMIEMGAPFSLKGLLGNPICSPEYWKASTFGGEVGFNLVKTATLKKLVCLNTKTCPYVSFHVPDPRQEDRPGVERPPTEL
In words: COX (ovine/human) Inhibitor Screening Assay, COX-1. The class given is biochemical. How it is done:
The ability of the obtained complexes to inhibit cyclooxygenase activity was measured using a COX (ovine/human) Inhibitor Screening Assay Kit (Cayman Chemicals, MI, USA) with ovine COX-1 and human recombinant COX-2. The amount of prostaglandin, dependent on the COX activity, after exposure to the tested complexes was calculated from the standard curve. […] The selectivity indices (SIs) were calculated according to the formula COX-1 IC50/COX-2 IC50.

In assay [14] the test system is Staphylococcus aureus ATCC 29213. The experiment in a line: Disc diffusion test (Kirby–Bauer). The class given is cell-based. Conditions: concentration according to MIC, 6 mm filter discs. How it is done: as §1
(§4) The antimicrobial sensibility assay was performed according to the Kirby–Bauer method using 6 mm filter discs. Mueller–Hinton agar (Oxoid) was poured onto Petri dishes (90 mm), and saturated filter discs at the concentration determined as the MIC were placed onto the agar surface after distributing bacteria on the agar. The Petri dishes were incubated at 37 °C for 24 h.
On the technique in general: In agar diffusion tests the substance spreads into inoculated agar from a disc or well.

In assay [15] the test system is Staphylococcus epidermidis ATCC 12228. The experiment in a line: Disc diffusion test (Kirby–Bauer). The class given is cell-based. Conditions: concentration according to MIC, 6 mm filter discs. How it is done:
as §1, §4

Assay [16] has as its system Bacteroides fragilis ATCC 25285. The experiment in a line: Disc diffusion test (Kirby–Bauer). Format: cell-based. The note with it: concentration according to MIC, 6 mm filter discs. How it is done:
as §1, §4

Assay [17] concerns Staphylococcus aureus ATCC 25923. In words: Disc diffusion test (Kirby–Bauer). The class given is cell-based. Conditions: concentration according to MIC, 6 mm filter discs. How it is done:
as §1, §4

For assay [18], the system named is Staphylococcus aureus ATCC 6538. In words: Disc diffusion test (Kirby–Bauer). The class given is cell-based. Conditions: concentration according to MIC, 6 mm filter discs. How it is done: as §1, §4
Assay [19] relates to Staphylococcus aureus ATCC 43300. In words: Disc diffusion test (Kirby–Bauer). The class given is cell-based. Conditions: concentration according to MIC, 6 mm filter discs. As to the method: as §1, §4
Assay [20] relates to Bacillus subtilis ATCC 6637. In words: Disc diffusion test (Kirby–Bauer). The note with it: concentration according to MIC, 6 mm filter discs. The class given is cell-based. As to the method:
as §1, §4

In assay [21] the test system is Enterococcus faecalis ATCC 29212. The experiment in a line: Disc diffusion test (Kirby–Bauer). Format: cell-based. Conditions: concentration according to MIC, 6 mm filter discs. How it is done: as §1, §4
In assay [22] the test system is Pseudomonas aeruginosa ATCC 27853. In words: Disc diffusion test (Kirby–Bauer). Format: cell-based. The note with it: concentration according to MIC, 6 mm filter discs. As to the method:
as §1, §4

Assay [23] relates to Escherichia coli ATCC 25218. The experiment in a line: Disc diffusion test (Kirby–Bauer). The class given is cell-based. Conditions: concentration according to MIC, 6 mm filter discs. How it is done: as §1, §4

With `CC(C)Cc1ccc(C(C)C(=O)O)cc1` (racemic) [IBU, (RS)-2-(4-(2-methylpropyl)phenyl)propanoic acid, reference compound], the MIC in assay [1] (2.5–160 µg mL^−1, read-out: MIC) is above 200 µg/mL.

`CC(C)Cc1ccc(C(C)C(=O)[O][Ag])cc1.Cn1c(=O)c2c(ncn2C)n(C)c1=O` (centres unmarked) [Ag-IBU-CAF]: the minimal inhibitory concentration (MIC) was 5 µg/mL in assay [2]; 10 µg/mL in assay [3]; 20 µg/mL in assay [4]; 5 µg/mL in [5]; 5 µg/mL in [6]; 10 µg/mL in assay [7]. For the same molecule, the minimum inhibitory concentration (MIC) is 10 µg/mL in assay [8]; 5 µg/mL in [9]; 10 µg/mL in assay [10]; 5 µg/mL in assay [11]; at most 20 µg/mL in assay [1] (2.5–160 µg mL^−1). Also, in [12], the 24h-IC50 was found to be 33.35 µg/mL. Also, the “IC50 COX-1” value in assay [13] amounted to 62.5 µg/mL. Besides, the “Inhibition Halo” value was found to be 12 mm in assay [14]; 11 mm in assay [15]; 10 mm in assay [16]; 16 mm in assay [17]; 15 mm in assay [18]; 15 mm in [19]. In addition, the “Inhibition Halo” value in [20] turned out to be 13 mm; in assay [21], 16 mm; in assay [22], 15 mm; in assay [23] it was 17 mm.

As for `CC(C)Cc1ccc(C(C)C(=O)[O][Ag])cc1` (centres unmarked) [Ag-IBU], the MIC in assay [2] amounted to 5 µg/mL; in assay [3], 20 µg/mL; in assay [4] it was 20 µg/mL; in [5], 10 µg/mL; in assay [6], 10 µg/mL; in assay [7], 20 µg/mL. Moreover, the minimal inhibitory concentration (MIC) is 10 µg/mL in assay [8]; 10 µg/mL in [9]; 10 µg/mL in [10]; 10 µg/mL in assay [11]; at most 20 µg/mL in assay [1] (2.5–160 µg mL^−1). In assay [12], this molecule showed a 24h-IC50 of 25.10 µg/mL. In addition, in assay [13], the “IC50 COX-1” value is 64.6 µg/mL. The “Inhibition Halo” value in [14] stood at 7 mm; in assay [15], 10 mm; in assay [16], 7 mm; in [17], 14 mm; in assay [18], 14 mm; in assay [19] it was 13 mm. For the same molecule, the “Inhibition Halo” value in [20] is given as 11 mm; in assay [21] it was 14 mm; in assay [22], 10 mm; in assay [23] it was 9 mm.

One may read the MIC as the lowest concentration found to suppress growth.
